Measurements reported in patent publication US10098852B2 (LAUNX BIOMEDICAL CO., LTD., priority 2014, dated 2018).
Several values for one entry are separate records, joined by “and”; a condition that tells them apart may be missing. Identical values can stand only once. Like-named read-outs stand apart in the source and are kept apart here.

Key:
[1] = system: gastric cancer cells (AGS) subcutaneous tumor; assay: Animal model test of gastric cancer: tumor size; format: in vivo, mice (BALB/cAnN.Cg-Foxn1nu/CrlNarl); conditions: for tumor longest length / tumor volume / Tumor volume growth / tumor width: individual mice A, B, C; for Tumor volume growth, average / tumor volume, average: group average
Description: In this invention, the female mice were (BALB/cAnN.Cg-Foxn1^nu/CrlNarl) purchased from National Laboratory Animal Center (Taiwan)). The weight of the mice were 21±1 g. These mice were subcutaneously injected with gastric cancer cells (AGS) and then put these mice into different cages at random. The drug test experiment was divided into three groups, include “control group”, “low dose group (100 mg/kg/day)”, and “high dose group (200 mg/kg/day)”. These mice were then injected test drug intraperitoneally once daily […]. The tumor sizes and body weight were measured twice a week. The tumor sizes were measured and calculated by formula: (L×W^2)/2. L represents the tumor longest length. W represents the tumor shortest diameter.

[2] = system: BxPC-3 (pancreatic cancer cell line); assay: Cell viability analysis (WST-1), pancreatic cancer cell line BxPC-3; format: cell-based; conditions: Homo sapiens
Description: (§1) The cell numbers were counted and reseed as 2×10^6 in cell culture plate/flask. Then, the culture medium was added to a volume of 10 ml, and the cells were cultured for 2-3 days. Then, the cells were suspended for loading into 96-well plates. The cell number was 3000/well and the volume of the culture medium was 100 μl each well.
(§2) Removing the original culture medium from 96-well plate. Then add 100 μl of commercially drug at a concentration of 10 μM per well. After 72 hours, add the diluted WST-1 reagent to the well with 100 μl/well, and the diluted WST-1 reagent was acquired from the dilution of 9:1 medium and WST-1 stock reagent. Finally, the total volume of each well was 200 μl/well. Culture the 96-well plate at 37° C. for 30 to 90 minutes. Detecting and calculate the survival rate of each cancer cells with an ELISA reader at OD450 nm.

[3] = system: TOV-21G (ovarian cancer cell line); assay: Cell viability analysis (WST-1), ovarian cancer cell line TOV-21G; format: cell-based; conditions: Homo sapiens, TOV21G
Description: as §1, §2

[4] = high dose (200 mg/kg/day) i.p. once daily, Second measurement, 200 mg/kg/day
[5] = high dose (200 mg/kg/day) i.p. once daily, Third measurement
[6] = high dose (200 mg/kg/day) i.p. once daily, Third measurement, 200 mg/kg/day
[7] = low dose (100 mg/kg/day) i.p. once daily, Fifth measurement
[8] = low dose (100 mg/kg/day) i.p. once daily, Fifth measurement, 100 mg/kg/day
[9] = low dose (100 mg/kg/day) i.p. once daily, First measurement
[10] = low dose (100 mg/kg/day) i.p. once daily, First measurement, 100 mg/kg/day
[11] = low dose (100 mg/kg/day) i.p. once daily, Fourth measurement
[12] = low dose (100 mg/kg/day) i.p. once daily, Fourth measurement, 100 mg/kg/day
[13] = low dose (100 mg/kg/day) i.p. once daily, Second measurement
[14] = low dose (100 mg/kg/day) i.p. once daily, Second measurement, 100 mg/kg/day
[15] = low dose (100 mg/kg/day) i.p. once daily, Third measurement
[16] = low dose (100 mg/kg/day) i.p. once daily, Third measurement, 100 mg/kg/day

Oc1ccc(OCc2ccccc2)cc1 [Monobenzone]
tumor longest length [1, 4]: 7 mm (2×) and 6 mm | tumor volume [1, 4]: 87.5 mm3 (2×) and 75 mm3 | Tumor volume growth, average [1, 5]: −33.3333 mm3 | tumor volume, average [1, 5]: 50 mm3 | Tumor volume growth [1, 6]: 0 mm3 and −12.5 mm3 and −87.5 mm3 | tumor longest length [1, 6]: 7 mm and 5 mm and 0 mm | tumor volume [1, 6]: 87.5 mm3 and 62.5 mm3 and 0 mm3 | tumor width [1, 6]: 5 mm (2×) and 0 mm | effect on tumor volume growth (in words) ([1]; high dose (200 mg/kg/day), FIG. 3): effectively slow down the tumor volume growth, and can also reduce the tumor volume | Tumor volume growth, average [1, 7]: 2.667 mm3 | tumor volume, average [1, 7]: 22 mm3 | Tumor volume growth [1, 8]: 0 mm3 (2×) and 8 mm3 | tumor longest length [1, 8]: 4 mm and 6 mm and 0 mm | tumor volume [1, 8]: 18 mm3 and 48 mm3 and 0 mm3 | tumor width [1, 8]: 3 mm and 4 mm and 0 mm | Tumor volume growth, average [1, 9]: 176.3333 mm3 | tumor volume, average [1, 9]: 176.3333 mm3 | Tumor volume growth [1, 10]: 256 mm3 and 147 mm3 and 126 mm3 | tumor longest length [1, 10]: 8 mm and 6 mm and 7 mm | tumor volume [1, 10]: 256 mm3 and 147 mm3 and 126 mm3 | tumor width [1, 10]: 8 mm and 7 mm and 6 mm | Tumor volume growth, average [1, 11]: −88 mm3 | tumor volume, average [1, 11]: 19.33 mm3 | Tumor volume growth [1, 12]: −108 mm3 and −68 mm3 and −88 mm3 | tumor longest length [1, 12]: 4 mm and 5 mm and 0 mm | tumor volume [1, 12]: 18 mm3 and 40 mm3 and 0 mm3 | tumor width [1, 12]: 3 mm and 4 mm and 0 mm | Tumor volume growth, average [1, 13]: −77.5 mm3 | tumor volume, average [1, 13]: 98.83 mm3 | Tumor volume growth [1, 14]: −130 mm3 and −39 mm3 and −63.5 mm3 | tumor longest length [1, 14]: 7 mm and 6 mm and 5 mm | tumor volume [1, 14]: 126 mm3 and 108 mm3 and 62.5 mm3 | tumor width [1, 14]: 6 mm (2×) and 5 mm | Tumor volume growth, average [1, 15]: 0 mm3 | tumor volume, average [1, 15]: 98.83 mm3 | Tumor volume growth [1, 15]: 0 mm3 | tumor longest length [1, 16]: 7 mm and 6 mm and 5 mm | tumor volume [1, 16]: 126 mm3 and 108 mm3 and 62.5 mm3 | tumor width [1, 16]: 6 mm (2×) and 5 mm | viability at 10 µM ([2]; BXPC-3, 72 h, BxPC-3, 10 μM, average of 4 tests, read-out: inhibition effect (survival rate of cells), average): 78.6% | viability at 10 µM ([2]; BXPC-3, BxPC-3, 10 μM, 72 hours, test 3-4-30 min, read-out: inhibition effect (survival rate of cells)): 86.3% | viability at 10 µM ([2]; BXPC-3, BxPC-3, 10 μM, 72 hours, test 3-7-3-30 min, read-out: inhibition effect (survival rate of cells)): 57.4% | viability at 10 µM ([2]; BXPC-3, BxPC-3, 10 μM, 72 hours, test 3-7-4-30 min, read-out: inhibition effect (survival rate of cells)): 100% | viability at 10 µM ([2]; BXPC-3, BxPC-3, 10 μM, 72 hours, test 3-7-7-30 min, read-out: inhibition effect (survival rate of cells)): 70.7% | viability at 10 µM ([3]; 72 h, average of 4 tests, read-out: inhibition effect (survival rate of cells), average): 78.4% | viability at 10 µM ([3]; 72 hours, test 7-3-30 min, read-out: inhibition effect (survival rate of cells)): 93.9% | viability at 10 µM ([3]; 72 hours, test 7-4-30 min, read-out: inhibition effect (survival rate of cells)): 78.4% | viability at 10 µM ([3]; 72 hours, test 7-7-30 min, read-out: inhibition effect (survival rate of cells)): 69.6% | viability at 10 µM ([3]; 72 hours, test −4-30 min, read-out: inhibition effect (survival rate of cells)): 71.6%
